Test results as given in patent US20230192700A1, “PYRAZOLOPYRAZINES ACTING ON CANCERS VIA INHIBITION OF CDK12” (Bayer Aktiengesellschaft, priority 2020, published 2023).

biological target: T1, CDK2/CyclinE (Homo sapiens, UniProt P24941); assay: CDK2/CycE kinase assay (TR-FRET); type: biochemical; settings: 2 mM ATP (high ATP); median; read-out: CDK2/CyclinE, 2 mM ATP (high ATP) IC50 - [mol/l] (median)
T1 construct: GST; purchased ProQinase GmbH (Freiburg, Germany); host or cells: insect cells (Sf9)
Text: 2.4 CDK2/CycE Kinase Assay
CDK2/CycE-inhibitory activity of compounds of the present invention was quantified employing the CDK2/CycE TR-FRET assay as described in the following paragraphs.
Recombinant fusion proteins of GST and human CDK2 and of GST and human CycE, expressed in insect cells (Sf9) and purified by Glutathion-Sepharose affinity chromatography, were purchased from ProQinase GmbH (Freiburg, Germany). As substrate for the kinase reaction biotinylated peptide biotin-Ttds-YISPLKSPYKISEG (C-terminus in amid form) was used which can be purchased e.g. form the company JERINI peptide technologies (Berlin, Germany).
For the assay 50 nanoL of a 100 fold concentrated solution of the test compound in DMSO was pipetted into a black low volume 384 well microtiter plate or a black 1536 well microtiter plate (both Greiner Bio-One, Frickenhausen, Germany), 2 microL of a solution of CDK2/CycE in aqueous assay buffer [50 millimol/L Tris/HCl pH 8.0, 10 millimol/L MgCl2, 1.0 millimol/L dithiothreitol, 0.1 millimol/L sodium ortho-vanadate, 0.01% (v/v) Nonidet-P40 (Sigma)] were added and the mixture was incubated for 15 min at 22° C. to allow pre-binding of the test compounds to the enzyme before the start of the kinase reaction. Then the kinase reaction was started by the addition of 3 microL of a solution of adenosine-tri-phosphate (ATP, 3.33 millimol/L=>final conc. in the 5 microL assay volume is 2 millimol/L) and substrate (1.25 micromol/L=>final conc. in the 5 microL assay volume is 0.75 micromol/L) in assay buffer and the resulting mixture was incubated for a reaction time of 25 min at 22° C. The concentration of CDK2/CycE was adjusted depending of the activity of the enzyme lot and was chosen appropriate to have the assay in the linear range, typical concentrations were in the range of 10 ng/mL. The reaction was stopped by the addition of 3 microL of a solution of TR-FRET detection reagents (0.333 micromol/L streptavidine-XL665 [Cisbio Bioassays, Codolet, France] and 1.67 nanomol/L anti-RB(pSer807/pSer811)-antibody from BD Pharmingen [#558389] and 2 nanomol/L LANCE EU-W1024 labeled anti-mouse IgG antibody [Perkin-Elmer, product no. AD0077, as an alternative a Terbium-cryptate-labeled anti-mouse IgG antibody from Cisbio Bioassays can be used]) in an aqueous EDTA-solution (167 millimol/L EDTA, 0.2% (w/v) bovine serum albumin in 100 millimol/L HEPES pH 7.5).
The resulting mixture was incubated 1 h at 22° C. to allow the formation of complex between the phosphorylated biotinylated peptide and the detection reagents. Subsequently the amount of phosphorylated substrate was evaluated by measurement of the resonance energy transfer from the Eu-chelate to the streptavidine-XL. Therefore, the fluorescence emissions at 620 nm and 665 nm after excitation at 350 nm was measured in a TR-FRET reader, e.g. a Pherastar (BMG Labtechnologies, Offenburg, Germany) or a Viewlux (Perkin-Elmer). The ratio of the emissions at 665 nm and at […] was taken as the measure for the amount of phosphorylated substrate. The data were normalised (enzyme reaction without inhibitor=0% inhibition, all other assay components but no enzyme=100% inhibition).

IC50, > 20 µM:
c1ccc2[nH]c(CNc3nn(C4CCOC4)c4nc(C5CC5)cnc34)nc2c1 (racemic) [Example 10, (±)-N-[(1H-benzimidazol-2-yl)methyl]-6-cyclopropyl-1-[oxolan-3-yl]-1H-pyrazolo[3,4-b]pyrazin-3-amine]
CC1COCCC1n1nc(NCc2nc3ccccc3[nH]2)c2ncc(C3CC3)nc21 (racemic) [Example 42, (±)-cis/trans-N-[(1H-benzimidazol-2-yl)methyl]-6-cyclopropyl-1-(3-methyloxan-4-yl)-1H-pyrazolo[3,4-b]pyrazin-3-amine]
COCCC(C)n1nc(NCc2nc3ccccc3[nH]2)c2ncc(C3CC3)nc21 (racemic) [Example 57, (±)-N-[(1H-benzimidazol-2-yl)methyl]-6-cyclopropyl-1-(4-methoxybutan-2-yl)-1H-pyrazolo[3,4-b]pyrazin-3-amine]
CC(CCN(C)C)n1nc(NCc2nc3ccccc3[nH]2)c2ncc(C3CC3)nc21 (racemic) [Example 62, (±)-N-[(1H-benzimidazol-2-yl)methyl]-6-cyclopropyl-1-[4-(dimethylamino)butan-2-yl]-1H-pyrazolo[3,4-b]pyrazin-3-amine]
CC(CCN(C)C)n1nc(NCc2nc3ccccc3[nH]2)c2ncc(C3CC3)nc21 (single isomer, unassigned) [Example 63, (+) or (−)-N-[(1H-benzimidazol-2-yl)methyl]-6-cyclopropyl-1-[4-(dimethylamino)butan-2-yl]-1H-pyrazolo[3,4-b]pyrazin-3-amine]
CC(CCN(C)C)n1nc(NCc2nc3ccccc3[nH]2)c2ncc(C3CC3)nc21 (single isomer, unassigned) [Example 64, (−) or(+)-N-[(1H-benzimidazol-2-yl)methyl]-6-cyclopropyl-1-[4-(dimethylamino)butan-2-yl]-1H-pyrazolo[3,4-b]pyrazin-3-amine]
CN1CCC(n2nc(NCc3nc4ccccc4[nH]3)c3ncc(C4CC4)nc32)C1 (single isomer, unassigned) [Example 79, (−) or (+)-N-[(1H-benzimidazol-2-yl)methyl]-6-cyclopropyl-1-(1-methylpyrrolidin-3-yl)-1H-pyrazolo[3,4-b]pyrazin-3-amine]
Cc1ccc2[nH]c(CNc3nn(C4CCN(C)CC4)c4nc(C5CC5)cnc34)nc2c1 [Example 6, 6-cyclopropyl-N-[(5-methyl-1H-benzimidazol-2-yl)methyl]-1-(1-methylpiperidin-4-yl)-1H-pyrazolo[3,4-b]pyrazin-3-amine]
CN1CCC(n2nc(NCc3nc4c(C(F)(F)F)cccc4[nH]3)c3ncc(C4CC4)nc32)CC1 [Example 7, 6-cyclopropyl-1-(1-methylpiperidin-4-yl)-N-{[4-(trifluoromethyl)-1H-benzimidazol-2-yl]methyl}-1H-pyrazolo[3,4-b]pyrazin-3-amine]
Cc1cccc2[nH]c(CNc3nn(C4CCN(C)CC4)c4nc(C5CC5)cnc34)nc12 [Example 8, 6-cyclopropyl-N-[(4-methyl-1H-benzimidazol-2-yl)methyl]-1-(1-methylpiperidin-4-yl)-1H-pyrazolo[3,4-b]pyrazin-3-amine]
CN1CCC(n2nc(NCc3nc4c(F)c(F)ccc4[nH]3)c3ncc(C4CC4)nc32)CC1 [Example 9, 6-cyclopropyl-N-[(4,5-difluoro-1H-benzimidazol-2-yl)methyl]-1-(1-methylpiperidin-4-yl)-1H-pyrazolo[3,4-b]pyrazin-3-amine]
CC(C)(C)OC(=O)N1CCC(n2nc(NCc3nc4ccccc4[nH]3)c3ncc(C4CC4)nc32)CC1 [Example 11, tert-butyl 4-(3-{[(1H-benzimidazol-2-yl)methyl]amino}-6-cyclopropyl-1H-pyrazolo[3,4-b]pyrazin-1-yl)piperidine-1-carboxylate]
c1ccc2[nH]c(CNc3nn(C4CCNCC4)c4nc(C5CC5)cnc34)nc2c1 [Example 12, N-[(1H-benzimidazol-2-yl)methyl]-6-cyclopropyl-1-(piperidin-4-yl)-1H-pyrazolo[3,4-b]pyrazin-3-amine]
CN1CCC(n2nc(NCc3nc4cc(SC(F)(F)F)ccc4[nH]3)c3ncc(C4CC4)nc32)CC1 [Example 27, 6-cyclopropyl-1-(1-methylpiperidin-4-yl)-N-({5-[(trifluoromethyl)sulfanyl]-1H-benzimidazol-2-yl}methyl)-1H-pyrazolo[3,4-b]pyrazin-3-amine]
FC1(F)CCC(n2nc(NCc3nc4ccccc4[nH]3)c3ncc(C4CC4)nc32)CC1 [Example 36, N-[(1H-benzimidazol-2-yl)methyl]-6-cyclopropyl-1-(4,4-difluorocyclohexyl)-1H-pyrazolo[3,4-b]pyrazin-3-amine]
c1ccc2[nH]c(CNc3nn(C4CCC4)c4nc(C5CC5)cnc34)nc2c1 [Example 49, N-[(1H-benzimidazol-2-yl)methyl]-1-cyclobutyl-6-cyclopropyl-1H-pyrazolo[3,4-b]pyrazin-3-amine]
O[C@H]1CC[C@@H](n2nc(NCc3nc4ccccc4[nH]3)c3ncc(C4CC4)nc32)CC1 [Example 51, cis-4-(3-{[(1H-benzimidazol-2-yl)methyl]amino}-6-cyclopropyl-1H-pyrazolo[3,4-b]pyrazin-1-yl)cyclohexan-1-ol]
CC1(C)CC(n2nc(NCc3nc4ccccc4[nH]3)c3ncc(C4CC4)nc32)CC(C)(C)O1 [Example 52, N-[(1H-benzimidazol-2-yl)methyl]-6-cyclopropyl-1-(2,2,6,6-tetramethyloxan-4-yl)-1H-pyrazolo[3,4-b]pyrazin-3-amine]
c1ccc2[nH]c(CNc3nn(C4CC5(COC5)C4)c4nc(C5CC5)cnc34)nc2c1 [Example 54, N-[(1H-benzimidazol-2-yl)methyl]-6-cyclopropyl-1-(2-oxaspiro[3.3]heptan-6-yl)-1H-pyrazolo[3,4-b]pyrazin-3-amine]
c1ccc2[nH]c(CNc3nn(C4COC4)c4nc(C5CC5)cnc34)nc2c1 [Example 55, N-[(1H-benzimidazol-2-yl)methyl]-6-cyclopropyl-1-(oxetan-3-yl)-1H-pyrazolo[3,4-b]pyrazin-3-amine]
O[C@H]1CC[C@H](n2nc(NCc3nc4cc(F)ccc4[nH]3)c3ncc(C4CC4)nc32)CC1 [Example 56, trans-4-(6-cyclopropyl-3-{[(5-fluoro-1H-benzimidazol-2-yl)methyl]amino}-1H-pyrazolo[3,4-b]pyrazin-1-yl)cyclohexan-1-ol]
OCCCn1nc(NCc2nc3ccccc3[nH]2)c2ncc(C3CC3)nc21 [Example 60, 3-(3-{[(1H-benzimidazol-2-yl)methyl]amino}-6-cyclopropyl-1H-pyrazolo[3,4-b]pyrazin-1-yl)propan-1-ol]
COCCCn1nc(NCc2nc3ccccc3[nH]2)c2ncc(C3CC3)nc21 [Example 61, N-[(1H-benzimidazol-2-yl)methyl]-6-cyclopropyl-1-(3-methoxypropyl)-1H-pyrazolo[3,4-b]pyrazin-3-amine]
